In ChEMBL document CHEMBL3600303, “The N-Terminal T-T Motif of a Third-Generation HIV-1 Fusion Inhibitor Is Not Required for Binding Affinity and Antiviral Activity” (J Med Chem, 2015):
The source made the active and inactive calls. The calls are words filed in the database; no cut-off is given here.

What was measured:
[1] = system: Human immunodeficiency virus 1; experiment: Antiviral activity against HIV-1 ZM214M.15 pseudovirus infected in human TZM-bl cells assessed as inhibition of viral entry into cells after 48 hrs by single-cycle infection assay; format: functional, organism-based; conditions: Human immunodeficiency virus 1, ZM214M.15, TZM-bl
Serum = experiment: Metabolic stability in Sprague-Dawley rat serum at 4 mg/kg, ip measured at 0.5 to 2 hrs post dose; format: ADME, organism-based; conditions: in vivo
[2] = system: Human immunodeficiency virus 1; experiment: Antiviral activity against wild type HIV1 NL4-3 infected in human TZM-bl cells assessed as inhibition of viral entry into cells after 48 hrs by single-cycle infection assay; format: functional, organism-based; conditions: Human immunodeficiency virus 1, NL4-3, TZM-bl
[3] = target: Envelope glycoprotein gp160 (Human immunodeficiency virus 1) (UniProt Q72502); experiment: Binding affinity to HIV1 NL4-3 gp41 N-terminal heptad repeat V38A/N42T double mutant after 30 mins by CD spectroscopic analysis
[4] = system: Human immunodeficiency virus 1; experiment: Antiviral activity against ENF-resistant HIV1 NL4-3 harboring gp41 N-terminal heptad repeat D36G mutant infected in human TZM-bl cells assessed as inhibition of viral entry into cells after 48 hrs by single-cycle infection assay; format: functional, organism-based
[5] = system: Human immunodeficiency virus 1; experiment: Antiviral activity against HIV-1 pseudovirus harboring Q66R/N126K double mutant; format: functional, organism-based
[6] = system: Human immunodeficiency virus 1; experiment: Ratio of IC50 for ENF-resistant HIV1 NL4-3 harboring gp41 N-terminal heptad repeat D36G mutant to IC50 for wild type HIV1 NL4-3; format: functional
[7] = target: Envelope glycoprotein gp160 (Human immunodeficiency virus 1) (UniProt Q72502); experiment: Binding affinity to HIV1 NL4-3 gp41 N-terminal heptad repeat N43K mutant after 30 mins by CD spectroscopic analysis
[8] = system: Human immunodeficiency virus 1; experiment: Ratio of IC50 for ENF-resistant HIV1 NL4-3 harboring gp41 N-terminal heptad repeat Q40H mutant to IC50 for wild type HIV1 NL4-3; format: functional
[9] = target: Envelope glycoprotein gp160 (Human immunodeficiency virus 1) (UniProt Q72502); experiment: Binding affinity to HIV1 NL4-3 gp41 N-terminal heptad repeat Q40H mutant after 30 mins by CD spectroscopic analysis
[10] = system: Human immunodeficiency virus 1; experiment: Ratio of IC50 for ENF-resistant HIV1 NL4-3 harboring gp41 N-terminal heptad repeat V38A mutant to IC50 for wild type HIV1 NL4-3; format: functional
[11] = system: Human immunodeficiency virus 1; experiment: Antiviral activity against ENF-resistant HIV1 NL4-3 harboring gp41 N-terminal heptad repeat Q40H mutant infected in human TZM-bl cells assessed as inhibition of viral entry into cells after 48 hrs by single-cycle infection assay; format: functional, organism-based
[12] = system: Human immunodeficiency virus 1; experiment: Antiviral activity against ENF-resistant HIV1 NL4-3 harboring gp41 N-terminal heptad repeat N43K mutant infected in human TZM-bl cells assessed as inhibition of viral entry into cells after 48 hrs by single-cycle infection assay; format: functional, organism-based
[13] = system: Envelope glycoprotein gp160 (Human immunodeficiency virus 1), Q72502 [V38A]; experiment: Binding affinity to HIV1 NL4-3 gp41 N-terminal heptad repeat V38A mutant after 30 mins by CD spectroscopic analysis
[14] = system: Human immunodeficiency virus 1; experiment: Antiviral activity against HIV-1 SF162 pseudovirus infected in human TZM-bl cells assessed as inhibition of viral entry into cells after 48 hrs by single-cycle infection assay; format: functional, organism-based; conditions: Human immunodeficiency virus 1, SF162, TZM-bl
[15] = system: Human immunodeficiency virus 1; experiment: Antiviral activity against ENF-resistant HIV1 NL4-3 harboring gp41 N-terminal heptad repeat V38M mutant infected in human TZM-bl cells assessed as inhibition of viral entry into cells after 48 hrs by single-cycle infection assay; format: functional, organism-based
[16] = system: Human immunodeficiency virus 1; experiment: Antiviral activity against ENF-resistant HIV1 NL4-3 harboring gp41 N-terminal heptad repeat V38A/N42T double mutant infected in human TZM-bl cells assessed as inhibition of viral entry into cells after 48 hrs by single-cycle infection assay; format: functional, organism-based
[17] = system: Human immunodeficiency virus 1; experiment: Antiviral activity against ENF-resistant HIV1 NL4-3 harboring gp41 N-terminal heptad repeat I37T mutant infected in human TZM-bl cells assessed as inhibition of viral entry into cells after 48 hrs by single-cycle infection assay; format: functional, organism-based
[18] = system: Human immunodeficiency virus 1; experiment: Antiviral activity against HIV1 NL4-3 pseudovirus infected in human TZM-bl cells assessed as inhibition of viral entry into cells after 48 hrs by single-cycle infection assay; format: functional, organism-based; conditions: Human immunodeficiency virus 1, NL4-3, TZM-bl
[19] = system: Human immunodeficiency virus 1; experiment: Ratio of IC50 for ENF-resistant HIV1 NL4-3 harboring gp41 N-terminal heptad repeat N43K mutant to IC50 for wild type HIV1 NL4-3; format: functional
[20] = system: Human immunodeficiency virus 1; experiment: Ratio of IC50 for ENF-resistant HIV1 NL4-3 harboring gp41 N-terminal heptad repeat V38A/N42T double mutant to IC50 for wild type HIV1 NL4-3; format: functional
[21] = system: Human immunodeficiency virus 1; experiment: Ratio of IC50 for ENF-resistant HIV1 NL4-3 harboring gp41 N-terminal heptad repeat I37T mutant to IC50 for wild type HIV1 NL4-3; format: functional
[22] = target: Envelope glycoprotein gp160 (Human immunodeficiency virus 1) (UniProt Q72502); experiment: Binding affinity to HIV1 NL4-3 gp41 N-terminal heptad repeat I37T mutant after 30 mins by CD spectroscopic analysis
[23] = system: Human immunodeficiency virus 1; experiment: Ratio of IC50 for ENF-resistant HIV1 NL4-3 harboring gp41 N-terminal heptad repeat D36S/V38M double mutant to IC50 for wild type HIV1 NL4-3; format: functional
[24] = system: Human immunodeficiency virus 1; experiment: Antiviral activity against wild type HIV-1; format: functional, organism-based
[25] = system: Human immunodeficiency virus 1; experiment: Antiviral activity against wild type HIV1 NL4-3 infected in human TZM-bl cells assessed as inhibition of viral replication after 2 days by luciferase reporter gene assay; format: functional, organism-based; conditions: Human immunodeficiency virus 1, NL4-3, TZM-bl, 48 h
[26] = system: Human immunodeficiency virus 1; experiment: Antiviral activity against ENF-resistant HIV1 NL4-3 harboring gp41 N-terminal heptad repeat D36S/V38M double mutant infected in human TZM-bl cells assessed as inhibition of viral entry into cells after 48 hrs by single-cycle infection assay; format: functional, organism-based
[27] = target: Envelope glycoprotein gp160 (Human immunodeficiency virus type 1 group M subtype B (isolate HXB2)(HIV-1), UniProt P04578); experiment: Binding affinity to HIV-1 HXB2 gp41 N-terminal heptad repeat assessed as inhibition of 6-helix bundle formation after 30 mins by ELISA; design: species or system Human immunodeficiency virus 1
[28] = system: Human immunodeficiency virus 1; experiment: Ratio of IC50 for ENF-resistant HIV1 NL4-3 harboring gp41 N-terminal heptad repeat V38M mutant to IC50 for wild type HIV1 NL4-3; format: functional
[29] = target: Envelope glycoprotein gp160 (Human immunodeficiency virus 1) (UniProt Q72502); experiment: Binding affinity to HIV1 NL4-3 gp41 N-terminal heptad repeat I37T/N43K double mutant after 30 mins by CD spectroscopic analysis
[30] = system: Human immunodeficiency virus 1; experiment: Antiviral activity against HIV-1 SC42261.8 pseudovirus infected in human TZM-bl cells assessed as inhibition of viral entry into cells after 48 hrs by single-cycle infection assay; format: functional, organism-based; conditions: Human immunodeficiency virus 1, SC42261.8, TZM-bl
[31] = target: Envelope glycoprotein gp160 (Human immunodeficiency virus 1) (UniProt Q72502); experiment: Binding affinity to HIV1 NL4-3 gp41 N-terminal heptad repeat G36D mutant after 30 mins by CD spectroscopic analysis
[32] = target: Envelope glycoprotein gp160 (Human immunodeficiency virus type 1 group M subtype B (isolate HXB2)(HIV-1)) (UniProt P04578); experiment: Binding affinity to HIV-1 HXB2 gp41 N-terminal heptad repeat assessed as thermostability of protein-compound complex at 10 uM after 30 mins by CD spectroscopic analysis; conditions: Human immunodeficiency virus 1
[33] = system: Human immunodeficiency virus 1; experiment: Ratio of IC50 for ENF-resistant HIV1 NL4-3 harboring gp41 N-terminal heptad repeat I37T/N43K double mutant to IC50 for wild type HIV1 NL4-3; format: functional
[34] = system: Human immunodeficiency virus 1; experiment: Antiviral activity against ENF-resistant HIV1 NL4-3 harboring gp41 N-terminal heptad repeat I37T/N43K double mutant infected in human TZM-bl cells assessed as inhibition of viral entry into cells after 48 hrs by single-cycle infection assay; format: functional, organism-based
[35] = Thermostability of the compound in PBS assessed as melting temperature at 20 uM by CD spectroscopic analysis; format: physicochemical; conditions: buffer
[36] = system: Human immunodeficiency virus 1; experiment: Antiviral activity against ENF-resistant HIV1 NL4-3 harboring gp41 N-terminal heptad repeat V38A mutant infected in human TZM-bl cells assessed as inhibition of viral entry into cells after 48 hrs by single-cycle infection assay; format: functional, organism-based

SMILES: CC[C@H](C)[C@H](NC(=O)[C@H](C)NC(=O)[C@H](CCCNC(=N)N)NC(=O)[C@H](CC(=O)O)NC(=O)[C@H](Cc1c[nH]c2ccccc12)NC(=O)[C@H](C)NC(=O)[C@H](CCC(=O)O)NC(=O)[C@H](Cc1c[nH]c2ccccc12)NC(=O)[C@@H](NC(=O)[C@@H](N)[C@@H](C)O)[C@@H](C)O)C(=O)N[C@@H](C)C(=O)N[C@@H](CCC(=O)O)C(=O)N[C@@H](Cc1ccc(O)cc1)C(=O)N[C@@H](C)C(=O)N[C@@H](C)C(=O)N[C@@H](CCCNC(=N)N)C(=O)N[C@H](C(=O)N[C@@H](CCC(=O)O)C(=O)N[C@@H](C)C(=O)N[C@@H](CC(C)C)C(=O)N[C@H](C(=O)N[C@@H](CCCNC(=N)N)C(=O)N[C@@H](C)C(=O)N[C@@H](C)C(=O)N[C@@H](CCC(N)=O)C(=O)N[C@@H](CCC(=O)O)C(=O)N[C@@H](CCC(N)=O)C(=O)N[C@@H](CCC(N)=O)C(=O)N[C@@H](CCC(=O)O)C(=O)N[C@@H](CCCCN)C(=O)N[C@@H](CC(N)=O)C(=O)N[C@@H](CCC(=O)O)C(=O)N[C@@H](C)C(=O)N[C@@H](C)C(=O)N[C@@H](CC(C)C)C(=O)N[C@@H](CCCNC(=N)N)C(=O)N[C@@H](CCC(=O)O)C(=O)N[C@@H](CC(C)C)C(=O)O)[C@@H](C)CC)[C@@H](C)CC
- IC50 [1]: 0.68 nM
- Stability (Serum): Stable
- IC50 [2]: 1.1 nM
- Activity [3]: Active
- IC50 [4]: 1.7 nM
- IC50 [5]: 8.36 nM
- Ratio IC50 [6]: 1.6
- Activity [7]: Active
- Ratio IC50 [8]: 1.3
- Activity [9]: Active
- Ratio IC50 [10]: 1.2
- IC50 [11]: 1.4 nM
- IC50 [12]: 2.1 nM
- Activity [13]: Active
- IC50 [14]: 12.5 nM
- IC50 [15]: 1.8 nM
- IC50 [16]: 0.8 nM
- IC50 [17]: 1.8 nM
- IC50 [18]: 1.15 nM
- Ratio IC50 [19]: 1.9
- Ratio IC50 [20]: 0.7
- Ratio IC50 [21]: 1.6
- Activity [22]: Active
- Ratio IC50 [23]: 1.1
- IC50 [24]: 1.32 nM
- IC50 [25]: 0.52 nM
- IC50 [26]: 1.2 nM
- IC50 [27]: 67.5 nM
- Ratio IC50 [28]: 1.6
- Activity [29]: Active
- IC50 [30]: 2.64 nM
- Activity [31]: Active
- Tm [32]: 82.2 °C
- Ratio IC50 [33]: 1.6
- IC50 [34]: 1.7 nM
- Tm [35]: 45.1 °C
- IC50 [36]: 1.3 nM
